Data as given in US12459922B2 (Gilead Sciences, Inc., priority 2022, dated 2025).

test system: endogenous cellular STAT1 (phosphorylated at Tyr701) in NCI-H1373 cells; assay: Phospho-STAT1 (Tyr701) LANCE Ultra TR-FRET Detection Assay; type: cell-based; conditions: Homo sapiens, NCI-H1373, 48 h, phospho-STAT1 (Tyr701) induction, read-out: NH1373 pSTAT1 EC50
Method: Phospho-STAT1 (Tyr701 LANCE Ultra TR-FRET Detection Assay
d. LANCE Ultra phospho-STAT1 (Tyr701) kits are designed for the detection of phosphorylated STAT1 in cell lysates using a simple, homogeneous LANCE Ultra sandwich assay (Cat. #TRF4028M). This assay is intended for assessing compound induction of endogenous levels of cellular STAT1 (phosphorylated at Tyr701) in NCI-H1373 cells. The NCI-H1373 cells are cultured in RPMI 1640 media containing 10% heat inactivated FBS, GlutaMAX, 1% Penicillin-Streptomycin. An Echo acoustic liquid handler is used to transfer 60 nanoliters of compound dilutions using the Echo Qualified, 384-well polypropylene microplate clear flat bottom source plates into a Greiner (#781080) cell culture microplate. NCI-H1373 cells are seeded into these compound-spotted culture plates at 30,000 cells/well in a 60 uL volume in growth media. The plates are incubated in a 5% CO2 humidified incubator at 37° C. for 48 hours. […] After spinning the plate down at 300 rpm for 1 min, the plate is read on an EnVision plate reader set up for Eu3+ Cryptate and fluorescence emission is measured at two different wavelengths (665 nm and 620 nm). The HTRF ratio is then calculated […] for each well to determine the amount of pSTAT1 in the cell lysate, and the data is then normalized to 10 uM GS-1154611 positive and DMSO negative controls.

Row | SMILES | EC50 [nM]
1 | O=c1[nH]ncc(N[C@H]2CCCC[C@H]2CCn2ccc3cc(-c4ncc(C(F)(F)F)cn4)c(F)cc3c2=O)c1C(F)(F)F (racemic) [Example 436, (rac)-7-fluoro-2-(2-((1S,2S)-2-((6-oxo-5-(trifluoromethyl)-1,6-dihydropyridazin-4-yl)amino)cyclohexyl)ethyl)-6-(5-(trifluoromethyl)pyrimidin-2-yl)isoquinolin-1(2H)-one] | 443
2 | O=c1[nH]ncc(N[C@H]2CCC[C@H]2CCn2ccc3cc(-c4ncc(C(F)(F)F)cn4)c(F)cc3c2=O)c1C(F)(F)F (racemic) [Example 437, (rac)-7-fluoro-2-(2-((1S,2S)-2-((6-oxo-5-(trifluoromethyl)-1,6-dihydropyridazin-4-yl)amino)cyclopentyl)ethyl)-6-(5-(trifluoromethyl)pyrimidin-2-yl)isoquinolin-1(2H)-one] | 102
3 | Nc1nc(-c2cc3ccn(CC[C@H]4COC[C@@H]4Nc4cn[nH]c(=O)c4C(F)(F)F)c(=O)c3cc2F)ncc1C(F)(F)F (racemic) [Example 441, (rac) 6-(4-amino-5-(trifluoromethyl)pyrimidin-2-yl)-7-fluoro-2-(2-((3R,4R)-4-((6-oxo-5-(trifluoromethyl)-1,6-dihydropyridazin-4-yl)amino)tetrahydrofuran-3-yl)ethyl)isoquinolin-1(2H)-one] | 388
4 | C[C@H](CCCn1ccc2cc(-c3ccc(C(F)(F)F)cn3)ccc2c1=O)Nc1cn[nH]c(=O)c1C(F)(F)F (single isomer, unassigned) [Example 2] | 10000
5 | C[C@@H](CCCn1ccc2cc(-c3ccc(C(F)(F)F)cn3)ccc2c1=O)Nc1cn[nH]c(=O)c1C(F)(F)F (single isomer, unassigned) [Example 3] | 108
6 | [2H][C@@](C)(CCCn1ccc2cc(-c3ncc(C(F)(F)F)cn3)c(F)c(F)c2c1=O)Nc1cn[nH]c(=O)c1C(F)(F)F (single isomer, unassigned) [Example 86] | 9.21
7 | [2H][C@](C)(CCCn1ccc2cc(-c3ncc(C(F)(F)F)cn3)c(F)c(F)c2c1=O)Nc1cn[nH]c(=O)c1C(F)(F)F (single isomer, unassigned) [Example 87] | 10000
8 | O=c1[nH]ncc(N2CC[C@@H]2CCCn2ccc3cc(-c4ncc(C(F)(F)F)cn4)c(F)cc3c2=O)c1C(F)(F)F (single isomer, unassigned) [Example 148] | 399
9 | O=c1[nH]ncc(N2CC[C@H]2CCCn2ccc3cc(-c4ncc(C(F)(F)F)cn4)c(F)cc3c2=O)c1C(F)(F)F (single isomer, unassigned) [Example 149] | 3.98
10 | O=c1[nH]ncc(N2CC[C@@H]2CCCn2cnc3cc(-c4ncc(C(F)(F)F)cn4)c(F)cc3c2=O)c1C(F)(F)F (single isomer, unassigned) [Example 151] | 58.7
11 | O=c1[nH]ncc(N2CC[C@H]2CCCn2cnc3cc(-c4ncc(C(F)(F)F)cn4)c(F)cc3c2=O)c1C(F)(F)F (single isomer, unassigned) [Example 152] | 0.508
12 | C[C@@H](C[C@H](O)Cn1ccc2cc(-c3ncc(C(F)(F)F)cn3)c(F)cc2c1=O)Nc1cn[nH]c(=O)c1C(F)(F)F (single isomer, unassigned) [Example 479] | 82.8
13 | C[C@@H](C[C@@H](O)Cn1ccc2cc(-c3ncc(C(F)(F)F)cn3)c(F)cc2c1=O)Nc1cn[nH]c(=O)c1C(F)(F)F (single isomer, unassigned) [Example 480] | 4.14
14 | CC(CCCn1ccc2cc(-c3ccc(C(F)(F)F)cn3)ccc2c1=O)Nc1cn[nH]c(=O)c1C(F)(F)F (stereo not shown) [Example 1, 2-(4-((6-oxo-5-(trifluoromethyl)-1,6-dihydropyridazin-4-yl)amino)pentyl)-6-(5-(trifluoromethyl)pyridin-2-yl)isoquinolin-1(2H)-one] | 97.8
15 | C[C@@H](CCCn1ccc2cc(-c3ccc(C(F)F)cn3)c(F)c(F)c2c1=O)Nc1cn[nH]c(=O)c1C(F)(F)F [Example 51, (S)-6-(5-(difluoromethyl)pyridin-2-yl)-7,8-difluoro-2-(4-((6-oxo-5-(trifluoromethyl)-1,6-dihydropyridazin-4-yl)amino)pentyl)isoquinolin-1(2H)-one] | 44.9
16 | C[C@@H](CCCn1cnc2cc(-c3ncc4cc[nH]c4n3)c(F)cc2c1=O)Nc1cn[nH]c(=O)c1C(F)(F)F [Example 62, 6-fluoro-3-[(4S)-4-[[6-oxo-5-(trifluoromethyl)-1H-pyridazin-4-yl]amino]pentyl]-7-(7H-pyrrolo[2,3-d]pyrimidin-2-yl)quinazolin-4-one] | 31.3
17 | Cc1c[nH]c2nc(-c3cc4ncn(CCC[C@H](C)Nc5cn[nH]c(=O)c5C(F)(F)F)c(=O)c4cc3F)ncc12 [Example 63, 6-fluoro-7-(5-methyl-7H-pyrrolo[2,3-d]pyrimidin-2-yl)-3-[(4S)-4-[[6-oxo-5-(trifluoromethyl)-1H-pyridazin-4-yl]amino]pentyl]quinazolin-4-one] | 7.15
18 | C[C@@H](CCCn1cnc2cc(-c3ncc4c(F)c[nH]c4n3)c(F)cc2c1=O)Nc1cn[nH]c(=O)c1C(F)(F)F [Example 64, 6-fluoro-7-(5-fluoro-7H-pyrrolo[2,3-d]pyrimidin-2-yl)-3-[(4S)-4-[[6-oxo-5-(trifluoromethyl)-1H-pyridazin-4-yl]amino]pentyl]quinazolin-4-one] | 37.3
19 | C[C@@H](CCCn1cnc2cc(-c3ncc(C4CC4)c(N)n3)c(F)cc2c1=O)Nc1cn[nH]c(=O)c1C(F)(F)F [Example 65, 7-(4-amino-5-cyclopropyl-pyrimidin-2-yl)-6-fluoro-3-[(4S)-4-[[6-oxo-5-(trifluoromethyl)-1H-pyridazin-4-yl]amino]pentyl]quinazolin-4-one] | 29.2
20 | COc1cnc(-c2cc3ncn(CCC[C@H](C)Nc4cn[nH]c(=O)c4C(F)(F)F)c(=O)c3cc2F)nc1N [Example 66, 7-(4-amino-5-methoxy-pyrimidin-2-yl)-6-fluoro-3-[(4S)-4-[[6-oxo-5-(trifluoromethyl)-1H-pyridazin-4-yl]amino]pentyl]quinazolin-4-one] | 71.5
21 | C[C@@H](CCCn1cnc2cc(-c3ncc(F)c(N)n3)c(F)cc2c1=O)Nc1cn[nH]c(=O)c1C(F)(F)F [Example 67, 7-(4-amino-5-fluoro-pyrimidin-2-yl)-6-fluoro-3-[(4S)-4-[[6-oxo-5-(trifluoromethyl)-1H-pyridazin-4-yl]amino]pentyl]quinazolin-4-one] | 218
22 | C[C@H](Nc1cn[nH]c(=O)c1C(F)(F)F)[C@@H]1C[C@H]1Cn1ccc2cc(-c3ncc(C(F)(F)F)cn3)c(F)cc2c1=O [Example 68, 7-fluoro-2-[[(1R,2R)-2-[(1S)-1-[[6-oxo-5-(trifluoromethyl)-1H-pyridazin-4-yl]amino]ethyl]cyclopropyl]methyl]-6-[5-(trifluoromethyl)pyrimidin-2-yl]isoquinolin-1-one] | 10000
23 | C[C@@H](CCCn1ccc2cc(-c3ncc(N4CC(O)(C(F)(F)F)C4)cn3)c(F)cc2c1=O)Nc1cn[nH]c(=O)c1C(F)(F)F [Example 69, 7-fluoro-6-[5-[3-hydroxy-3-(trifluoromethyl)azetidin-1-yl]pyrimidin-2-yl]-2-[(4S)-4-[[6-oxo-5-(trifluoromethyl)-1H-pyridazin-4-yl]amino]pentyl]isoquinolin-1-one] | 148
24 | CC[C@@H](CCCn1ccc2cc(-c3ncc(C#N)c(N)n3)c(F)cc2c1=O)Nc1cn[nH]c(=O)c1C(F)(F)F [Example 70, 4-amino-2-[7-fluoro-1-oxo-2-[(4S)-4-[[6-oxo-5-(trifluoromethyl)-1H-pyridazin-4-yl]amino]hexyl]-6-isoquinolyl]pyrimidine-5-carbonitrile] | 22.1
25 | CC[C@@H](CCCn1ccc2cc(-c3ncc(C(F)(F)F)c(N)n3)c(F)cc2c1=O)Nc1cn[nH]c(=O)c1C(F)(F)F [Example 71, 6-[4-amino-5-(trifluoromethyl)pyrimidin-2-yl]-7-fluoro-2-[(4S)-4-[[6-oxo-5-(trifluoromethyl)-1H-pyridazin-4-yl]amino]hexyl]isoquinolin-1-one] | 5.94
26 | O=c1[nH]ncc(N2CCC2CCCn2ccc3cc(-c4ncc(C(F)(F)F)cn4)c(F)cc3c2=O)c1C(F)(F)F (stereo not shown) [Example 72, 7-fluoro-2-[3-[1-[6-oxo-5-(trifluoromethyl)-1H-pyridazin-4-yl]azetidin-2-yl]propyl]-6-[5-(trifluoromethyl)pyrimidin-2-yl]isoquinolin-1-one] | 5.85
27 | CC(C)(O)[C@@H](CCCn1ccc2cc(-c3ncc(C(F)(F)F)cn3)c(F)cc2c1=O)Nc1cn[nH]c(=O)c1C(F)(F)F [Example 73, 7-fluoro-2-[(4R)-5-hydroxy-5-methyl-4-[[6-oxo-5-(trifluoromethyl)-1H-pyridazin-4-yl]amino]hexyl]-6-[5-(trifluoromethyl)pyrimidin-2-yl]isoquinolin-1-one] | 734
28 | C[C@@H](CCCn1ccc2cc(-c3ncc(C(C)(C)O)cn3)c(F)cc2c1=O)Nc1cn[nH]c(=O)c1C(F)(F)F [Example 74, 7-fluoro-6-[5-(1-hydroxy-1-methyl-ethyl)pyrimidin-2-yl]-2-[(4S)-4-[[6-oxo-5-(trifluoromethyl)-1H-pyridazin-4-yl]amino]pentyl]isoquinolin-1-one] | 65.3
